PubChem BioAssay (NCI)
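Five compound concentrations were applied to cells in 96-well plates for 48 hours; endpoints were derived by simple linear interpolation of the resulting dose-response curve. The concentration for full growth arrest is given as TGI.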

Experiments:
Test in all cases: growth of human tumour cells (NCI), 48 h
ACHN renal = system: ACHN renal
BT-549 breast = system: BT-549 breast
EKVX NSCLC = system: EKVX NSCLC
HS 578T breast = system: HS 578T breast
NCI-H23 lung = system: NCI-H23 lung
NCI/ADR-RES ovarian = system: NCI/ADR-RES ovarian
OVCAR-3 ovarian = system: OVCAR-3 ovarian
OVCAR-5 ovarian = system: OVCAR-5 ovarian
OVCAR-8 ovarian = system: OVCAR-8 ovarian
T-47D breast = system: T-47D breast
NCI-H522 lung = system: NCI-H522 lung
OVCAR-4 ovarian = system: OVCAR-4 ovarian

| Compound | TGI (ACHN renal) [µM] | TGI (BT-549 breast) [µM] | TGI (EKVX NSCLC) [µM] | TGI (HS 578T breast) [µM] | TGI (NCI-H23 lung) [µM] | TGI (NCI/ADR-RES ovarian) [µM] | TGI (OVCAR-3 ovarian) [µM] | TGI (OVCAR-5 ovarian) [µM] | TGI (OVCAR-8 ovarian) [µM] | TGI (T-47D breast) [µM] | TGI (NCI-H522 lung) [µM] | TGI (OVCAR-4 ovarian) [µM] |
| --- | --- | --- | --- | --- | --- | --- | --- | --- | --- | --- | --- | --- |
| CCOC(=O)c1c(NC(=O)c2ccc(OC)cc2)sc2c1CCCC2 | > 100 | > 100 | > 100 | > 100 | > 100 | > 100 | > 100 | > 100 | > 100 | > 100 |  |  |
| CC(C)N1CCCOC(c2ccc([N+](=O)[O-])cc2)O1 (stereo not drawn) | > 100 | > 100 | > 100 |  | > 100 | > 100 | > 100 | > 100 | > 100 | > 100 | > 100 | > 100 |
| COc1cc(CCCC(O)COc2cccc3c2C2(O)CCCCCC32)cc(OC)c1 (stereo not drawn) | 29.4 |  | 30.6 |  | 32.6 |  |  | 31.5 | 37.8 |  | 42.1 | 40.6 |
| O=Cc1ccc2c(c1)CC1(C2)Cc2ccc(C=O)cc2C1 | 62.1 |  | > 100 | 28.7 | 49.8 | 32.5 | 34.1 | > 100 | 31.3 | 71.8 | 54.9 | > 69.7 |
| CC1=CCC[C@]2(C)C1=CC(=O)O[C@H]2c1ccoc1 | > 100 |  | > 100 | > 100 | > 100 | > 100 | > 100 | > 100 | > 100 | > 100 | > 100 | > 100 |
| O=c1[nH]n(Cc2ccccc2CCl)c2ccc([N+](=O)[O-])cc12 | > 100 |  | > 100 | > 100 | > 100 | > 100 | > 100 | > 100 | > 100 |  | 63.2 | > 100 |
| COC(=O)c1cc(C#N)[nH]c1-c1cccs1 | > 100 | > 100 | > 100 |  | > 100 | > 100 | > 100 | > 100 | > 100 | > 100 | > 100 | > 100 |
| Nc1c(Cl)c([N+](=O)[O-])cc2c1OCCCCO2 | > 100 |  | > 100 | > 100 | > 100 | > 100 | > 100 | > 100 | > 100 | > 100 | 5.28 | > 100 |
| COc1cc(/C=C2\N=C(c3ccccc3)N(/N=C/c3cc4cc(C)ccc4nc3Cl)C2=O)cc(OC)c1OC | > 100 | > 100 | > 100 | 88.8 |  | > 100 | > 100 | > 100 | > 100 | 63.3 |  | > 100 |
| CCCCc1ccc(N2C(=O)c3cccnc3S2(=O)=O)cc1 | > 100 | > 100 | > 100 |  | > 100 | > 100 | > 100 | > 100 | > 100 | > 100 | > 100 | > 100 |
